How the values were obtained:
HeLa cells = tested on: HeLa cells; design: method as in earlier work; settings: 48 h, ref [1]; cited from earlier work
FPu18T = assay: FRET-melting assay; format: binding; settings: FPu18T 1.0 μM, compound 2.0 μM
Experimental: (§1) We asked whether chiral platinum(II) complexes 4–6 have the ability to bind to G-quadruplex DNA. To address this, FRET assays, CD spectroscopy, G4-FID assays, and fluorescence titration analysis were performed. […] For G4-HTG21, the ^G4DC50 values of complexes 4–6 were 1.23, 1.26 and 0.99 μM, respectively; while, for G4-Pu27, the ^G4DC50 values were 1.01, 0.89, and 0.82 μM, respectively. In addition, the ^ctDNADC50/^G4DC50 ratio of the HTG21 and Pu27 G4s treated with complexes 4–6 was in the range of 50.54-90.65 and 71.56-110.67 folds, respectively. To further evaluate the binding ability of complexes 4–6 to Pu27 and HTG21G4s, CD spectroscopy and fluorescence titration analysis were performed. […] The quenching ability of complexes 4–6 to HTG21 and Pu27 G4 DNA fluorescence can be quantitatively estimated by their respective quenching constant (Kq), which was derived from the Stern-Volmer quenching equation. […] Finally, the selective binding of complexes 4–6 towards G4 DNA was analyzed by FRET-melting assays. […] In contrast, the ΔTm value for the F32T+H20M duplex DNA in the presence of complexes 4–6 was 1.18, 1.34, and 0.78 °C under the same conditions (Figure 4A). Altogether, our data indicated complexes 4–6, especially complex 6, is the best binder to G4 DNA, which caused DNA complex displaying the highest thermodynamic stability.
(§2) Figure 4 Complexes 4–6 induced telomeres damage and inhibited the telomerase activity through directly regulating the mRNA level of c-myc promoter (Pu27) (A) ΔTm data (°C) of 1.0 μM HTG21, Pu39 and c-myc G4s and duplex DNA (F32T+H20M) treated with complexes 1–6 at 0–2.0 μM were evaluated by […]. (B) The levels of TRF2, 53BP1, and TRF1 in BEL-7404 cells treated with complexes 4–6 at 10 μM for 24 h were examined by Western blot. (C) The whole-cell extracts were prepared and analyzed by Western blot analysis using antibodies against TRF2, 53BP1, and TRF1. The same blots were stripped and re-probed with β-actin antibody to show equal protein loading. Western blotting bands from three independent measurements were quantified with Image J. in (B). (D) The influence of complexes 4–6 (10 μM) on the telomerase activity of the BEL-7404 cells for 24 h. (E) The investigations of the expression of c-myc and hTERT in the BEL-7404 tumor cells when incubated with complexes 4–6 (10 μM) for 24 h. C-myc and hTERT protein levels in BEL-7404 cells were analyzed by western blot. (F) The whole-cell extracts were prepared and analyzed by Western blot analysis using antibodies against c-myc and hTERT. The same blots were stripped and re-probed with β-actin antibody to show equal protein loading. Western blotting bands from three independent measurements were quantified with Image J. in (E). (G) qRT-PCR analysis of the expression levels of hTERT and c-myc in the BEL-7404 cells treated with complexes 4–6 (10 μM). The BEL-7404 cells (5×10^5) were treated with complexes 4–6 (10 μM) for 24 h. The total RNA in the cells was extracted and subjected to reverse transcription, followed by PCR for c-myc, hTERT, and GAPDH (control). (H) and (I) The investigations of the role of the transfections of EGFP plasmid vector (H) and c-myc plasmid vector (I) in the BEL-7404 tumor cells when incubated with complexes 4–6 (10 μM) for 24 h. First, 2.0 μg of EGFP-carrying plasmid vector or 2.0 μg of c-myc-carrying plasmid vector was cotransfected into BEL-7404 cells using Lipofectamine 2000 (Invitrogen, Grand Island, NY, USA). Complexes 4–6 (10 μM) were then added, respectively, into medium at 6.0 h after transfection of c-myc plasmid. At another 24 h after treatment with complexes 4–6 (10 μM), these cells were imaged using Nikon TE2000 (Japan) scanning fluorescent microscope or were examined by Multimodel Plate Reader with luciferase reporter gene assay kit. […]

F21T = assay: FRET-melting assay; format: binding; settings: F21T 1.0 μM, compound 2.0 μM
Experimental: as §1, §2

F32T+H20M duplex DNA = assay: FRET-melting assay; format: binding; settings: F32T+H20M duplex DNA 1.0 μM, compound 2.0 μM
Experimental: as §1, §2

Compound	IC50 (HeLa cells)	ΔTm (FPu18T)	ΔTm (F21T)	ΔTm (F32T+H20M duplex DNA)
O=C(NCC(O)CO)c1cnc2c3c(cccc13)-c1ccccc1C2=O.[Cl-].[Cl-].[Pt+2] (racemic) [ligand 1, R/S-(±)-FOA]	25.7 ± 2.2 µM	–	–	–
O=C(NC[C@@H](O)CO)c1cnc2c3c(cccc13)-c1ccccc1C2=O.[Cl-].[Cl-].[Pt+2] [ligand 2, R-(+)-FOA]	28.5 ± 0.3 µM	–	–	–
O=C(NC[C@H](O)CO)c1cnc2c3c(cccc13)-c1ccccc1C2=O.[Cl-].[Cl-].[Pt+2] [ligand 3, S-(–)-FOA]	22.9 ± 0.7 µM	–	–	–
cis-[PtCl2(R-(+)-FOA)] [complex 5]	–	16.66 °C	12.95 °C	1.34 °C
cis-[PtCl2(R/S-(±)-FOA)] [complex 4]	–	19.15 °C	13.19 °C	1.18 °C
cis-[PtCl2(S-(–)-FOA)] [complex 6]	–	23.01 °C	20.07 °C	0.78 °C
